Test results from article PMC6216040, “Repurposing of an old drug: In vitro and in vivo efficacies of buparvaquone against Echinococcus multilocularis” (International Journal for Parasitology: Drugs and Drug …, 2018).

System: E. multilocularis metacestodes
Assay: PGI-assay: drug-induced damage on in vitro cultured metacestodes (Pathogen Box screening cascade and EC50)
Format: cell-based, Echinococcus multilocularis
Conditions: for PGI release, % of the Tx-100 control, 5d / PGI release, % of the Tx-100 control, 12d: 10 µM, singlets; for PGI release, % of the Tx-100 control, 5d / PGI release, % of Tx-100 control, average, 5d: 5 days of incubation; for PGI release, % of the Tx-100 control, 12d / PGI release, % of Tx-100 control, average, 12d: 12 days of incubation
[1] = confirmatory screening at 10 µM in triplicates, values as % of Tx-100 control

COc1cccc(NC(=O)c2c(NC(=O)c3cccnc3)sc3c2CCC3)c1 [MMV228911]
PGI release, % of the Tx-100 control, 5d: 6.25% | PGI release, % of the Tx-100 control, 12d: 18.91%

COc1ccc(Cn2cnc3c(-c4ccco4)nc(Cl)nc32)cc1 [MMV687170]
PGI release, % of the Tx-100 control, 5d: 0.26% | PGI release, % of the Tx-100 control, 12d: -3.06%

COc1ccc(Oc2ccc([C@@H](C)N(C)c3ncc4c(N)nc(N)nc4n3)cc2)cc1 [MMV690102]
PGI release, % of Tx-100 control, average, 5d (1 µM, triplicates): -0.29% | PGI release, % of Tx-100 control, average, 12d (1 µM, triplicates): 5.50% | activity in the screen at 10 μM (confirmed in triplicates, >20% relative PGI release) (10 μM, 5 and 12 days): active | PGI release, % of the Tx-100 control, 5d: 73.64% | PGI release, % of the Tx-100 control, 12d: 91.71% | PGI release, % of Tx-100 control, average, 5d [1]: 25.36% | PGI release, % of Tx-100 control, average, 12d [1]: 31.53%

N#CCN(CCCCN1CCN(c2ccc(F)cc2)CC1)C(=O)OCc1ccccc1 [MMV675997]
PGI release, % of the Tx-100 control, 5d: -0.27% | PGI release, % of the Tx-100 control, 12d: -1.46%

N=C(N)c1ccc(-c2cc(-c3ccccc3)on2)cc1 [MMV688514]
PGI release, % of the Tx-100 control, 5d: -2.10% | PGI release, % of the Tx-100 control, 12d: 0.39%

COc1ccc(OC(C)C(=O)Nc2ccc(Cl)cc2C)cc1 (stereo not shown) [MMV202458]
PGI release, % of the Tx-100 control, 5d: 0.0146% | PGI release, % of the Tx-100 control, 12d: 6.22%

COc1ccccc1OCCCCn1c(C2CC2)nc2ccccc21 [MMV676474]
PGI release, % of the Tx-100 control, 5d: 1.01% | PGI release, % of the Tx-100 control, 12d: 0.22%

CCCn1c(CNc2ccccc2O)nc2ccccc21 [MMV676445]
PGI release, % of the Tx-100 control, 5d: -1.26% | PGI release, % of the Tx-100 control, 12d: 2.30%

CS(=O)(=O)Cc1nc2ccccc2oc1=O [MMV553002]
PGI release, % of the Tx-100 control, 5d: -3.93% | PGI release, % of the Tx-100 control, 12d: -1.57%

COc1ccc(OC)c(NCc2ccc3nc(N)nc(N)c3c2Cl)c1 [MMV675968]
PGI release, % of the Tx-100 control, 5d: -0.10% | PGI release, % of the Tx-100 control, 12d: 8.05%

CC(C)(C(=O)Nc1ccc(F)cc1)n1cc(-c2ccccc2F)cn1 [MMV687239]
PGI release, % of the Tx-100 control, 5d: 0.07% | PGI release, % of the Tx-100 control, 12d: 101.93% | PGI release, % of Tx-100 control, average, 5d [1]: -0.64% | PGI release, % of Tx-100 control, average, 12d [1]: -1.06%

COc1cccc(OC)c1C(=O)Nc1ccc(Cl)c(-c2nc3ccccc3s2)c1 [MMV676472]
PGI release, % of the Tx-100 control, 5d: 5.75% | PGI release, % of the Tx-100 control, 12d: 51.73% | PGI release, % of Tx-100 control, average, 5d [1]: 0.98% | PGI release, % of Tx-100 control, average, 12d [1]: 2.19%

CC(=O)N1CCN(c2ccc(Oc3ccc(Cl)cc3O)cc2)CC1 [MMV688330]
PGI release, % of the Tx-100 control, 5d: -0.72% | PGI release, % of the Tx-100 control, 12d: -5.52%

NCCN(C(=O)c1ccc(Cl)cc1Cl)c1ccc(OCc2ccc(Cl)cc2)cc1 [MMV688371]
PGI release, % of the Tx-100 control, 5d: 45.68% | PGI release, % of the Tx-100 control, 12d: 52.47% | PGI release, % of Tx-100 control, average, 5d [1]: 3.16% | PGI release, % of Tx-100 control, average, 12d [1]: 3.77%

COC(=O)c1c(NC(=O)c2cc3ccccc3oc2=O)sc2c1CCN(Cc1ccccc1)C2 [MMV676480]
PGI release, % of the Tx-100 control, 5d: -0.80% | PGI release, % of the Tx-100 control, 12d: 1.41%

NCC(=O)N1CCn2c(nc(-c3ccccc3)c2Nc2ccc3c(c2)OCO3)C1 [MMV011691]
PGI release, % of the Tx-100 control, 5d: 1.25% | PGI release, % of the Tx-100 control, 12d: 2.05%

c1coc(CNc2nc(N3CCCCC3)nc3ccccc23)c1 [MMV676401]
PGI release, % of the Tx-100 control, 5d: -3.33% | PGI release, % of the Tx-100 control, 12d: 41.40% | PGI release, % of Tx-100 control, average, 5d [1]: -0.0357% | PGI release, % of Tx-100 control, average, 12d [1]: -0.23%

O=C(Nc1cccc(Cl)c1)c1cnc(N2CCN(c3ccncc3)CC2)c(Cl)c1 [MMV024406]
PGI release, % of the Tx-100 control, 5d: 4.18% | PGI release, % of the Tx-100 control, 12d: 4.57%

CC1=Nc2ccc(Cl)cc2C(c2ccccc2)N1CCNC(=O)CN(C)C (stereo not shown) [MMV688410]
PGI release, % of the Tx-100 control, 5d: 0.08% | PGI release, % of the Tx-100 control, 12d: -1.09%

CN(C)CCNC(=O)N1CCCN(c2ncnc3cc(-c4ccccc4)sc23)CC1 [MMV024195]
PGI release, % of the Tx-100 control, 5d: 1.72% | PGI release, % of the Tx-100 control, 12d: 5.34%

CCN(CC)S(=O)(=O)c1ccc(C(=O)Nc2cc(C)nn2-c2nc(C)c(C)c(=O)[nH]2)cc1 [MMV595321]
PGI release, % of the Tx-100 control, 5d: -0.14% | PGI release, % of the Tx-100 control, 12d: -1.13%

CCOc1ccccc1NC(C)C(=O)Nc1cc(C(F)(F)F)ccc1N1CCOCC1 (stereo not shown) [MMV407834]
PGI release, % of the Tx-100 control, 5d: -0.40% | PGI release, % of the Tx-100 control, 12d: -0.68%

Cc1ccc2cc(C3NC(=O)c4ccccc4N3)c(Cl)nc2c1 (stereo not shown) [MMV019807]
PGI release, % of the Tx-100 control, 5d: 1.08% | PGI release, % of the Tx-100 control, 12d: 2.05%

CC(c1cc(Cl)cc(Cl)c1)N(C)c1ncc2c(N)nc(N)nc2n1 (stereo not shown) [MMV689437]
PGI release, % of the Tx-100 control, 5d: 4.64% | PGI release, % of the Tx-100 control, 12d: 4.83%
